The record followed here is ChEMBL document CHEMBL5625276, “Antascomicin B stabilizes FKBP51-Akt1 complexes as a molecular glue” (Bioorg Med Chem Lett, 2024).

The target in assay [1] is T1, Peptidyl-prolyl cis-trans isomerase FKBP5 (Homo sapiens, UniProt Q13451).
T1 sequence (Q13451 whole entry): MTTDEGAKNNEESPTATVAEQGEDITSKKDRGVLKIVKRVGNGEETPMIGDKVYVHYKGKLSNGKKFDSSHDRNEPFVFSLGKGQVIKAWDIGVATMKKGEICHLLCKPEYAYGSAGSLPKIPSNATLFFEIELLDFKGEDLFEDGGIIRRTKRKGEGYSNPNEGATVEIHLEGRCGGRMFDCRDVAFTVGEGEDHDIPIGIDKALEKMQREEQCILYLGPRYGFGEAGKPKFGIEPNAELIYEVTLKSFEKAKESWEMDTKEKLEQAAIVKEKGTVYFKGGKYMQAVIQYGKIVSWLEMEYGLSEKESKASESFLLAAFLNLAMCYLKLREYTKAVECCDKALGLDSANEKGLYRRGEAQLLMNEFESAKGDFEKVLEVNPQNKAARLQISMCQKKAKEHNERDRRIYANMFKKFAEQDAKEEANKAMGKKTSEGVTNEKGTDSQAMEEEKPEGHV
Briefly: Binding affinity to human FKBP51 FK1 domain expressed in Escherichia coli BL21 DE3 Gold assessed as dissociation constant incubated for 30 mins by competitive fluorescence polarization assay. On the technique in general: In fluorescence polarisation assays a small probe gives low polarisation when free and higher when bound to something large.

Assay [2] deals with HEK293T. As to the kind of experiment: Stabilization of FLAG tagged human FKBP51 P120pBpa incorporation mutant/human Akt complex in HEK293T cells assessed as induction of photocrosslinking adduct formation at 1 uM pretreated with compound followed by UV irradiation for 30 mins by immunoprecipitation based Western blot analysis. In kind it is cell-based. On the technique in general: Immunoblotting shows a protein as a band on a membrane.

In assay [3] the target is T2, Peptidyl-prolyl cis-trans isomerase FKBP4 (Homo sapiens, UniProt Q02790).
T2 sequence (Q02790 whole entry): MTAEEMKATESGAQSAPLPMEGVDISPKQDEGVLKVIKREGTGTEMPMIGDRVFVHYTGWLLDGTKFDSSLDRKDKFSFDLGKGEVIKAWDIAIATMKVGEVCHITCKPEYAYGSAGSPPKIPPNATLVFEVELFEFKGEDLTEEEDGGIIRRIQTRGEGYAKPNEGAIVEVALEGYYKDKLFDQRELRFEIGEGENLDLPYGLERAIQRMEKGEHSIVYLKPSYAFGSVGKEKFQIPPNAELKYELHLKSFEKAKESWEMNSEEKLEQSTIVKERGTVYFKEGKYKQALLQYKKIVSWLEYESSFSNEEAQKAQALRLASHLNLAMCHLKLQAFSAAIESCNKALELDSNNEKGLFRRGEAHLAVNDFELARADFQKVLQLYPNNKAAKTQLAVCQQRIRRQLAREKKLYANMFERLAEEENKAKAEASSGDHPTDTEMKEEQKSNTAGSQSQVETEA
As to the kind of experiment: Binding affinity to human FKBP52 FK1 domain expressed in Escherichia coli BL21 DE3 Gold assessed as dissociation constant incubated for 30 mins by competitive fluorescence polarization assay.

Assay [4] has as its system HEK293T. As to the kind of experiment: Stabilization of FLAG-tagged human FKBP51 K52pBpa incorporation mutant/human Akt T308D mutant in HEK293T cells assessed as photocrosslinking adduct formation at 1 uM pretreated with compound followed by UV irradiation for 30 mins by immunoprecipitation based Western blot analysis. It counts as cell-based.
Assay [5] concerns the target Peptidyl-prolyl cis-trans isomerase FKBP1B (Homo sapiens, UniProt P68106). Briefly: Binding affinity to human FKBP12.6 expressed in Escherichia coli BL21 DE3 Gold assessed as dissociation constant incubated for 30 mins by competitive fluorescence polarization assay.
For assay [6], the system named is HEK293T. As to the kind of experiment: Stabilization of FLAG-tagged human FKBP51 K52pBpa incorporation mutant/human Akt S473D mutant in HEK293T cells assessed as photocrosslinking adduct formation at 1 uM pretreated with compound followed by UV irradiation for 30 mins by immunoprecipitation based Western blot analysis. It counts as cell-based.
The test system of assay [7] is HEK293T. As to the kind of experiment: Stabilization of FLAG tagged human FKBP51 P120pBpa incorporation mutant/human Akt complex in HEK293T cells assessed as increase in photocrosslinking at 1 uM pretreated with compound followed by UV irradiation for 30 mins by immunoprecipitation based Western blot analysis. It counts as cell-based.
For assay [8], the system named is HEK293T. As to the kind of experiment: Stabilization of FLAG tagged human FKBP51 P120pBpa incorporation mutant/human Akt complex in HEK293T cells assessed as increase in Akt1 coimmunoprecipitation at 1 uM in absence of UV irradiation by immunoprecipitation based Western blot analysis. In kind it is cell-based.
In assay [9] the test system is HEK293T. As to the kind of experiment: Stabilization of FLAG tagged human FKBP51 K52pBpa incorporation mutant/human Akt complex in HEK293T cells assessed as increase in photocrosslinking at 1 uM pretreated with compound followed by UV irradiation for 30 mins by immunoprecipitation based Western blot analysis. In kind it is cell-based.
The subject of assay [10] is HEK293T. Briefly: Stabilization of FLAG-tagged human FKBP51 K52pBpa incorporation mutant/human Akt T308A mutant in HEK293T cells assessed as photocrosslinking adduct formation at 1 uM pretreated with compound followed by UV irradiation for 30 mins by immunoprecipitation based Western blot analysis. It counts as cell-based.
In assay [11] the test system is HEK293T. As to the kind of experiment: Stabilization of FLAG-tagged human FKBP51 K52pBpa incorporation mutant/human Akt S473A mutant in HEK293T cells assessed as photocrosslinking adduct formation at 1 uM pretreated with compound followed by UV irradiation for 30 mins by immunoprecipitation based Western blot analysis. It counts as cell-based.
The subject of assay [12] is HEK293T. As to the kind of experiment: Stabilization of FLAG-tagged human FKBP51 K52pBpa incorporation mutant/human Akt T308A/S473A mutant in HEK293T cells assessed as photocrosslinking adduct formation at 1 uM pretreated with compound followed by UV irradiation for 30 mins by immunoprecipitation based Western blot analysis. In kind it is cell-based.
In assay [13] the target is Peptidyl-prolyl cis-trans isomerase FKBP1A (Homo sapiens, UniProt P62942). Briefly: Binding affinity to human FKBP12 expressed in Escherichia coli BL21 DE3 Gold assessed as dissociation constant incubated for 30 mins by competitive fluorescence polarization assay.
Assay [14] concerns HEK293T. Briefly: Stabilization of FLAG-tagged wild type human FKBP51/human Akt complex in HEK293T cells assessed as increase in Akt co-immunoprecipitation at 1 uM by Western blot analysis. It counts as cell-based.
The test system of assay [15] is HEK293T. Briefly: Stabilization of FLAG-tagged human HSP90 binding incompetent FKBP51 K352A/R356A mutant/human Akt complex in HEK293T cells assessed as increase in Akt co-immunoprecipitation at 1 uM by Western blot analysis. In kind it is cell-based.
In assay [16] the test system is HEK293T. Briefly: Stabilization of FLAG tagged human FKBP51 K52pBpa incorporation mutant/human Akt complex in HEK293T cells assessed as increase in Akt1 coimmunoprecipitation at 1 uM in absence of UV irradiation by immunoprecipitation based Western blot analysis. It counts as cell-based.
Assay [17] has as its system HEK293T. Briefly: Stabilization of FLAG tagged human FKBP51 E75pBpa incorporation mutant/human Akt complex in HEK293T cells assessed as increase in photocrosslinking pretreated with compound followed by UV irradiation by immunoprecipitation based Western blot analysis. It counts as cell-based.
In assay [18] the test system is HEK293T. As to the kind of experiment: Stabilization of FLAG-tagged human FKBP51 K52pBpa incorporation mutant/wild type Akt in HEK293T cells assessed as photocrosslinking adduct formation at 1 uM pretreated with compound followed by UV irradiation for 30 mins by immunoprecipitation based Western blot analysis. It counts as cell-based.
The test system of assay [19] is HEK293T. As to the kind of experiment: Stabilization of FLAG tagged human FKBP51 N74pBpa incorporation mutant/human Akt complex in HEK293T cells assessed as increase in photocrosslinking pretreated with compound followed by UV irradiation by immunoprecipitation based Western blot analysis. In kind it is cell-based.

Activity calls are given as the source filed them. The calls are words filed in the database; no cut-off is given here.

Peptidyl-prolyl cis-trans isomerase FKBP1A, sequence (P62942 whole entry): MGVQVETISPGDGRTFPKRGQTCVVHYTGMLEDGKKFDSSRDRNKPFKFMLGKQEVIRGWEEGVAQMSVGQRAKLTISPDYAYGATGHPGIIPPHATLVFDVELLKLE
Peptidyl-prolyl cis-trans isomerase FKBP1B, sequence (P68106 whole entry): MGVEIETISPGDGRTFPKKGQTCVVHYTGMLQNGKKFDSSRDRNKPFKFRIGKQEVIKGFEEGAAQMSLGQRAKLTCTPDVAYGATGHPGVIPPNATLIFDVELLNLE

In the case of `C=CC[C@@H]1/C=C(\C)C[C@H](C)C[C@H](OC)[C@H]2O[C@@](O)(C(=O)C(=O)N3CCCC[C@H]3C(=O)O[C@H](/C(C)=C/[C@@H]3CC[C@@H](O)[C@H](OC)C3)[C@H](C)[C@@H](O)CC1=O)[C@H](C)C[C@@H]2OC` [TACROLIMUS ANHYDROUS], in assay [1], the Kd is 75.9 nM. Besides, the result in [2] was inactive.
`CO[C@H]1C[C@@H]2CC[C@@H](C)[C@@](O)(O2)C(=O)C(=O)N2CCCC[C@H]2C(=O)O[C@H]([C@H](C)C[C@@H]2CC[C@@H](O)[C@H](OC)C2)CC(=O)[C@H](C)/C=C(\C)[C@@H](O)[C@@H](OC)C(=O)[C@H](C)C[C@H](C)/C=C/C=C/C=C/1C` [SIROLIMUS]: the results for the Kd in assay [1] and in [3] were 8.5 nM and 12 nM, respectively. Moreover, the result in assay [2] was inactive.
Turning to `C[C@@H]1/C=C/CC/C=C/C(=O)[C@H](C)[C@@H]2CC[C@@H](C)[C@@](O)(O2)C(=O)C(=O)N2CCCC[C@H]2C(=O)O[C@H]([C@H](C)C[C@@H]2CC[C@@H](O)[C@H](O)[C@H]2O)CC1`, the result in assay [4], in assay [6], in [7], in assay [8], in assay [9] and in [10] was Active. Moreover, the outcome in assay [11], in [12], in assay [2], in assay [14], in assay [15] and in assay [16] was Active. Also, the outcome in [17], in assay [18] and in assay [19] was Active. Moreover, the Kd was found to be 0.38 nM in [5], 6.7 nM in [1], 1.2 nM in assay [3] and 0.03 nM in assay [13].

As a reminder, the Kd is the equilibrium constant for the complex coming apart.
